No end group written: not given here.
What was measured:
[1] = tested on: glutathione (RBC GSH); assay: Glutathione levels in a rat septic shock model; assay type: in vivo, Sprague-Dawley rats; conditions: Rats with Septic Shock + Tα1 mg/rat × 3
Excerpt: (§1) Using a septic shock model in rats (Sprague-Dawley, male, 200-225 g each), the effect of thymosin α1 alone and together with antibiotics was studied. Peritonitis was induced in rats in the following way. A 1-cm incision was made into the peritoneal which exposed the cecum. A tight ligature was placed around the cecum with 4-0 suture distal to the insertion of the small bowel, forming an area of devitalized tissue while maintaining bowel continuity. A puncture wound was made with 16-gauge needle into the anti-mesenteric surface of the cecum and a small amount of fecal contents was expressed through the wound. The cecum was replaced into the peritoneal cavity, and the anterior peritoneal wall and skin were closed with surgical staples. Each animal was given a bolus of normal saline (15 ml/kg) for hydration and allowed to recover overnight.
(§2) **At 0 hr, 2 hr, and 4 hr post induction of peritonitis

[2] = tested on: endotoxic mice; assay: Survival of Swiss Webster mice following lethal endotoxin dose and Tα1; assay type: in vivo
Protocol: (§3) Swiss-Webster mice 4-6 weeks of age (20-25 g) were divided into 2 groups: endotoxic mice (endotoxin 60 mg/kg i.p. in acute treatment) and endotoxic mice treated with 3 injections of 100 μg Tα1 (5 minutes, 2 and 4 hours post administration of the endotoxin).
Using the same materials and methods as in example 1, the time and dose-dependency of the protective effect of Tα1 on endotoxin lethality were studied.

[3] = tested on: blood free radical levels; assay: Blood free radical levels; assay type: in vivo; conditions: compared with SOD
[4] = tested on: 6-keto-PGF1α; assay: 6-keto-PGF1α plasma levels in mice after lethal dose of endotoxin; assay type: in vivo, Swiss-Webster mice
Protocol: as §3
(§4) Using the same methods and materials as in examples 1 and 2, the effect which Tα1 has on blood levels of IL-1α, TNF-α, PAG, Txβ2 and 6-keto-PGF1 α, which are pathological mediators of endotoxin induced lethality, was studied.

[5] = tested on: Cerebellar cortex cyclic GMP; assay: cGMP cerebellar levels in mice treated with lethal doses of endotoxin; assay type: in vivo, Swiss-Webster mice
Protocol: as §3

[6] = tested on: malonyldialdehyde; assay: Lipid peroxidation (blood malonyldialdehyde) in a septic shock model in rat; assay type: in vivo, Sprague-Dawley rats; conditions: Rats with Septic + Tα1 1 mg/rat × 3
Excerpt: as §1, §2

[7] = tested on: PAF; assay: PAF blood levels in mice after lethal dose of endotoxin; assay type: in vivo, Swiss-Webster mice
Protocol: as §3, §4

[8] = tested on: IL-1α; assay: Serum IL-1α levels in mice treated with lethal doses of endotoxin; assay type: in vivo, Swiss-Webster mice
Protocol: as §3
(§5) *Mice were pretreated with SOD (super oxide dismatase), 30 minutes before
(§6) endotoxin administration XX blood for determined of TNFα and
(§7) IL1α levels was collected 1 hr after endotoxin administration.
as §4

[9] = tested on: TNF-α; assay: Serum TNF-α levels in mice treated with lethal doses of endotoxin; assay type: in vivo, Swiss-Webster mice
Protocol: as §3, §5, §6, §7, §4

[10] = tested on: IL1 α; assay: IL1α levels in a septic shock model in rat; assay type: in vivo, Sprague-Dawley rats; conditions: Rats with Septic Shock + Tα1 1 mg/rat × 3
Excerpt: as §1, §2

[11] = tested on: 6-keto-PGF1; assay: 6-keto-PGF1 levels in a septic shock model in rat; assay type: in vivo, Sprague-Dawley rats; conditions: Rats with Septic Shock + Tα1 1 mg/rat × 3
Excerpt: as §1, §2

[12] = tested on: glutathione (RBC GSH); assay: Erythrocyte glutathione levels in mice treated with lethal doses of endotoxin; assay type: in vivo, Swiss-Webster mice
Protocol: as §3
*Total erythrocyte glutathione, 98% of which is in the reduced form (GSH)
was determined by the enzymatic "cyclic method."-

[13] = tested on: malonyldialdehyde; assay: Blood hydroperoxide (malonyldialdehyde) levels in mice treated with lethal doses of endotoxin; assay type: in vivo, Swiss-Webster mice
Protocol: as §3
*Whole blood samples (0.5 ml) were obtained by tail bleds 1 hour after
endotoxin administration

[14] = tested on: T × β2; assay: Txβ2 levels in a septic shock model in rat; assay type: in vivo, Sprague-Dawley rats; conditions: Rats with Septic Shock + Tα1 1 mg/rat × 3
Excerpt: as §1, §2

[15] = tested on: Txβ2; assay: Txβ2 plasma levels in mice after lethal dose of endotoxin; assay type: in vivo, Swiss-Webster mice
Protocol: as §3, §4

[16] = tested on: TNFα; assay: TNFα levels in a septic shock model in rat; assay type: in vivo, Sprague-Dawley rats; conditions: Rats with Septic Shock + Tα1 1 mg/rat × 3
Excerpt: as §1, §2

[17] = tested on: Rats with Septic Shock; assay: Survival in septic shock model in rats (peritonitis by cecal ligation and puncture); assay type: in vivo, Sprague-Dawley rats; conditions: for Survival of Sprague-Dawley rats, 48 hr / Survival of Sprague-Dawley rats, 72 hr / Survival of Sprague-Dawley rats, 24 hr: rats with peritonitis, both groups got antibiotic (gentamicin sulfate, 1 mg/rat), 10 at 0 hr; for Survival of Sprague-Dawley rats, 48 hr / Survival of Sprague-Dawley rats, 72 hr: thymosin α1 1 mg/rat × 3; for Survival of Sprague-Dawley rats, 24 hr: thymosin α1 1 mg/rat × 3 at 0, 2 and 4 hr post induction; for Number of Rats Alive, 24 h / Number of Rats Alive, 48 h / Number of Rats Alive, 72 h: Rats with Septic Shock + Tα1 1 mg/rat × 3, 10 alive at 0 h
Excerpt: as §1
*gentamicin sulfate, 1 mg/rat
as §2

[18] = first of two unlabelled columns
[19] = second of two unlabelled columns
[20] = Table I, Endotoxin 60 mg/kg + Tα1 100 μg 3×, 7 alive at 0 hrs
[21] = Table II, Endotoxin 60 mg/kg + Tα1 100 μg 3×, 8 alive at 0 hr.
[22] = Table VIII, Tα1 10 μg, 3×, immediately following, 2 and 4 hrs. after endotoxin, 8 alive at 0 hrs
[23] = Table VIII, Tα1 100 μg, 3×, 2, 4 and 6 hrs. after endotoxin, 8 alive at 0 hrs
[24] = Table VIII, Tα1 100 μg, 3×, immediately following, 2 and 4 hrs. after endotoxin, 8 alive at 0 hrs
[25] = Table XII, Endotoxin 60 mg/kg + Tα1 100 μg administered immediately following
[26] = after administration of a lethal dose of endotoxin
[27] = Table X, Endotoxin 60 mg/kg + Tα1 100 μg administered immediately following
[28] = Table XIII, Endotoxin 60 mg/kg + Tα1 100 μg administered immediately following
[29] = Table IX, Endotoxin 60 mg/kg + Tα1 100 μg administered immediately following
[30] = Table VII, serum, pretreatment with SOD 3.3 × 10^4 μ/kg (30 minutes before endotoxin) or Tα1 100 μg/mice, blood 1 hr after endotoxin
[31] = Table VI, serum, Endotoxin 60 mg/kg + Tα1
[32] = Table XIV, Endotoxin 60 mg/kg + Tα1 100 μg administered immediately following
[33] = during sepsis, species not given
[34] = Table XI, Endotoxin 60 mg/kg + Tα1 100 μg administered immediately following

Thymosin α1 (SDAAVDTSSEITTKDLKEKKEVVEEAEN; ends and bridges not checked; UniProt P06454 2-29, looked up) [Tα1, peptide originally derived from the Thymus gland, 28 amino acids; synthetic Tα1 prepared by solid phase peptide synthesis]
RBC GSH [1, 18]: 1.29 ± 0.07 μmoles/ml cells | RBC GSH [1, 19]: 1.20 ± 0.085 μmoles/ml cells | Number of Mice Alive, 24 hrs ([2]; Table I, Endotoxin 60 mg/kg + Tα1 100 μg 3× (5 minutes, 2 and 4 hours post endotoxin), 7 alive at 0 hrs): 7 | Number of Mice Alive, 48 hrs [2, 20]: 7 | Number of Mice Alive, 72 hrs [2, 20]: 7 | Number of Mice Alive, 24 hr. [2, 21]: 8 | Number of Mice Alive, 48 hr. [2, 21]: 8 | Number of Mice Alive, 72 hr. [2, 21]: 8 | Number of Mice Alive, 7 day [2, 21]: 8 | Number of Mice Alive, 14 day [2, 21]: 8 | Number of Mice Alive, 24 hrs ([2]; Table VIII, Endotoxin 60 mg/kg + Tα1 10 μg, 3×, immediately following, 2 and 4 hrs. after endotoxin, 8 alive at 0 hrs): 8 | Number of Mice Alive, 24 hrs ([2]; Table VIII, Endotoxin 60 mg/kg + Tα1 100 μg, 3×, 2, 4 and 6 hrs. after endotoxin, 8 alive at 0 hrs): 8 | Number of Mice Alive, 24 hrs ([2]; Table VIII, Endotoxin 60 mg/kg + Tα1 100 μg, 3×, immediately following, 2 and 4 hrs. after endotoxin, 8 alive at 0 hrs): 8 | Number of Mice Alive, 48 hrs [2, 22]: 5 | Number of Mice Alive, 72 hrs [2, 22]: 5 | Number of Mice Alive, 96 hrs [2, 22]: 5 | Number of Mice Alive, 120 hrs [2, 22]: 5 | Number of Mice Alive, 48 hrs [2, 23]: 8 | Number of Mice Alive, 72 hrs [2, 23]: 8 | Number of Mice Alive, 96 hrs [2, 23]: 8 | Number of Mice Alive, 120 hrs [2, 23]: 8 | Number of Mice Alive, 48 hrs [2, 24]: 8 | Number of Mice Alive, 72 hrs [2, 24]: 8 | Number of Mice Alive, 96 hrs [2, 24]: 8 | Number of Mice Alive, 120 hrs [2, 24]: 8 | survival rate of mice treated with endotoxin ([2]; Tα1 administered 3 times post administration of endotoxin, Tables I and II): 100% | effective protective dose ([2]; administered three times, endotoxin lethality in mice): 100 µg | protective effect on endotoxin toxicity ([2]; given immediately following, 2 and 4 hours after, or 2, 4 and 6 hours after endotoxin treatment): had protective effect on endotoxin toxicity | blood free radical levels [3]: reduce blood free radical levels almost as much as SOD | 6-keto-PGF1α (plasma levels), 0.5 hr. [4, 25]: 224 ± 19 pg/mL | 6-keto-PGF1α (plasma levels), 1 hr [4, 25]: 745 ± 62 pg/mL | 6-keto-PGF1α (plasma levels), 2 hr [4, 25]: 341 ± 33 pg/mL | 6-keto-PGF1α (plasma levels), 3 hr [4, 25]: 205 ± 19 pg/mL | 6-keto-PGF1 α plasma levels [4, 26]: decreased | Cerebellar cortex cyclic GMP ([5]; Endotoxin 60 mg/kg i.p. + Tα1 100 μg): 14.6 ± 1.2 pmol per mg/protein | cerebellar cGMP levels ([5]; administration during sepsis): decreases cerebellar cGMP levels | Blood Levels of malonyldialdehyde [6, 18]: 17.1 ± 1.6 nNol MDA | Blood Levels of malonyldialdehyde [6, 19]: 21.9 ± 2.3 nNol MDA | PAF (plasma levels), 0.5 hr [7, 27]: 48 ± 3 pg/mL | PAF (plasma levels), 1 hr [7, 27]: 136 ± 9 pg/mL | PAF (plasma levels), 2 hr [7, 27]: 68 ± 4 pg/mL | PAF (plasma levels), 3 hr [7, 27]: 32 ± 2 pg/mL | PAF (serum levels), 1 hr [7, 28]: 783 pg/mL | PAF (serum levels), 3 hr [7, 28]: 508 pg/mL | PAF (serum levels), 5 hr [7, 28]: 429 pg/mL | PAF plasma levels [7, 26]: decreased | IL-1α (serum levels), 1 hr [8, 29]: 83 ± 7.1 pg/mL | IL-1α (serum levels), 3 hr [8, 29]: 165 ± 13.7 pg/mL | IL-1 α [8, 30]: 109 ± 71 pg/mL | IL-1α serum levels [8, 26]: decreased | TNF-α, 1 hr [9, 31]: 638 ± 57 pg/mL | TNF-α, 3 hr [9, 31]: 426 ± 37 pg/mL | TNF-α, 5 hr [9, 31]: 297 ± 27 pg/mL | TNF-α [9, 30]: 285 ± 23.6 pg/mL | TNF-α (serum levels), 1 hr [9, 32]: 783 pg/mL | TNF-α (serum levels), 3 hr [9, 32]: 508 pg/mL | TNF-α (serum levels), 5 hr [9, 32]: 429 pg/mL | TNF-α serum levels [9, 26]: decreased | IL1 α [10]: 689 ± 53 pg/mL | 6-keto-PGF1 [11]: 1132 ± 96 pg/mL | RBC GSH ([12]; Endotoxin 60 mg/kg + Tα1 100 μg/mouse, total erythrocyte glutathione): 1.12 ± 0.12 μmoles/ml cells | circulating blood levels of glutathione [12, 33]: returns circulatory gluthathine leves to normal or about normal | Blood Levels of malonyldialdehyde ([13]; Endotoxin 60 mg/kg + Tα1 100, whole blood 1 hour after endotoxin administration): 16.9 ± 1.36 nMol MDA | peroxidation of lipids in blood [13, 33]: returned to normal or about normal | T × β2 [14]: 2353 ± 197 pg/mL | T × β2 (plasma levels), 0.5 hr. [15, 34]: 910 ± 85 pg/mL | T × β2 (plasma levels), 2 hr [15, 34]: 530 ± 47 pg/mL | T × β2 (plasma levels), 1 hr ([15]; Table XI, Endotoxin 60 mg/kg + Tα1 100 μg administered immediately following, spread 185 printed): 1921 pg/mL | T × β2 (plasma levels), 3 hr ([15]; Table XI, Endotoxin 60 mg/kg + Tα1 100 μg administered immediately following, spread 260 printed): 391 pg/mL | Txβ2 plasma levels [15, 26]: decreased | TNFα [16]: 1231 ± 129 pg/mL | Survival of Sprague-Dawley rats, 48 hr ([17]; Table XV): 6 | Survival of Sprague-Dawley rats, 72 hr ([17]; Table XV): 6 | Survival of Sprague-Dawley rats, 24 hr ([17]; Table XV): 8 | survival of rats ([17]; Table XV, with antibiotic): increased the survival of rats | Number of Rats Alive, 24 h ([17]; Table XX): 9 | Number of Rats Alive, 48 h ([17]; Table XX): 9 | Number of Rats Alive, 72 h ([17]; Table XX): 5 | Number of Rats Alive, 24 h ([17]; Table XXI): 8 | Number of Rats Alive, 48 h ([17]; Table XXI): 7 | Number of Rats Alive, 72 h ([17]; Table XXI): 3 | survival rate of rats with septic shock ([17]; Tables XX and XXI): increases the survival rate of rats with septic shock

gentamicin sulfate [antibiotic, reference compound]
Survival of Sprague-Dawley rats, 48 hr ([17]; Table XV): 1 | Survival of Sprague-Dawley rats, 72 hr ([17]; Table XV): 0 | Survival of Sprague-Dawley rats, 24 hr ([17]; Table XV): 1

Source: patent US5585352A, “Method of treating septic shock using thymosin-α 1” (The George Washington University Medical Center, priority 1994, dated 1996)
